# Experimental data as given in ChEMBL document CHEMBL4373724, “An overview of recent progress in siderophore-antibiotic conjugates” (2019).
# Legend:
# Type in all cases: functional
# [1] = system: Mycobacterium tuberculosis; assay: Antitubercular activity against extensively drug resistant Mycobacterium tuberculosis isolate 9
# [2] = system: Mycobacterium tuberculosis; assay: Antitubercular activity against multi drug resistant Mycobacterium tuberculosis isolate 6
# [3] = system: Mycobacterium tuberculosis; assay: Antitubercular activity against extensively drug resistant Mycobacterium tuberculosis isolate 11
# [4] = system: Mycobacterium tuberculosis; assay: Antitubercular activity against multi drug resistant Mycobacterium tuberculosis isolate 1
# [5] = system: Mycobacterium tuberculosis; assay: Antitubercular activity against multi drug resistant Mycobacterium tuberculosis isolate 3
# [6] = system: Mycobacterium tuberculosis; assay: Antitubercular activity against multi drug resistant Mycobacterium tuberculosis isolate 2
# [7] = system: Mycobacterium tuberculosis; assay: Antitubercular activity against multi drug resistant Mycobacterium tuberculosis isolate 5
# [8] = system: Mycobacterium tuberculosis; assay: Antitubercular activity against extensively drug resistant Mycobacterium tuberculosis isolate 10
# [9] = system: Mycobacterium tuberculosis; assay: Antitubercular activity against multi drug resistant Mycobacterium tuberculosis isolate 7
# [10] = system: Mycobacterium tuberculosis; assay: Antitubercular activity against extensively drug resistant Mycobacterium tuberculosis isolate 8
# [11] = system: Mycobacterium tuberculosis; assay: Antitubercular activity against multi drug resistant Mycobacterium tuberculosis isolate 4
smiles,measurement,setting,value
CCCCCCCCCCCCCCCCC(=O)N(O)CCCC[C@H](NC(=O)[C@@H]1COC(c2ccccc2O)=N1)C(=O)NC[C@H](NC(=O)CCCO[C@H]1O[C@@H]2O[C@@]3(C)CC[C@H]4[C@H](C)CC[C@@H]([C@H]1C)[C@@]24OO3)C(=O)N[C@H]1CCCCN(O)C1=O,MIC,[1],0.078 µg/mL
same,MIC,[2],0.625 µg/mL
same,MIC,[3],0.31 µg/mL
same,MIC,[4],1.25 µg/mL
same,MIC,[5],0.625 µg/mL
same,MIC,[6],0.625 µg/mL
same,MIC,[7],0.156 to 0.312 µg/mL
same,MIC,[8],0.625 µg/mL
same,MIC,[9],0.312 µg/mL
same,MIC,[10],0.31 µg/mL
same,MIC,[11],0.625 µg/mL
